In patent publication US6541621B1, “Hypoxia inducible promoter” (Purdue University Research Foundation, priority 1997, dated 2003):
“Also recorded” adds a separate entry of the source.

Columns and labels:
[1] = tested on: rice suspension cells; assay: GUS activity of promoter-uidA construct shot into rice suspension cells; assay type: cell-based; settings: 2.38 kb region fused to the uidA gene
[2] = tested on: rice suspension cells; assay: Protein synthesis in rice suspension cells; assay type: cell-based; settings: cycloheximide at 20 to 300 μM
[3] = tested on: Alcohol dehydrogenase (Adh) gene; assay: Northern blot of total RNA from suspension cells with or without cycloheximide, maize Adh probe; assay type: cell-based, rice; settings: for Adh transcripts: cycloheximide in the presence of O2, suspension cells
Procedure: Two-week-old uniform seedlings of rice (IR54 variety) were transferred to two liter flasks and subjected to anaerobic conditions. Seedlings were submerged in distilled water through which nitrogen gas was continuously bubbled. The anaerobic treatment was conducted in the dark at 25° C. Control seedlings were maintained in the dark at 25° C. Tissues were harvested and immersed in liquid nitrogen. Extraction of RNA was carried out according to the procedure of Logmann et al. (Anal Biochem 163: 16-20, 1987) with modifications. The frozen tissue (2 gm) was ground in liquid nitrogen in an autoclaved mortar and pestle, and transferred to autoclaved plastic centrifuge tubes. Extraction buffer (4M guanidine hydrochloride, 20 mM MES, 20 mM EDTA, 4 ml/g tissue) was added to each tube. After vigorous shaking and complete mixing the suspension was extracted once with phenol:chloroform:isoamyl alcohol (25:24:1) and centrifuged for 45 minutes at room temperature at 10,000 rpm in a Beckman centrifuge using JA-20 rotor. Then 0.2 volumes of 1 M acetic acid [diethyl pyrocarbonate (DEPC) -treated] were added to the supernatant to acidify the contents, and the RNA was precipitated by adding 0.7 volumes of ethanol after 1 hour incubation at −80° C. following centrifugation at 10,000 rpm for 10 minutes. The RNA pellet was subsequently dissolved in DEPC-treated water and reprecipitated using ⅓ volume of 8 M LiCl (overnight at 4° C.). The RNA sample was subsequently washed with 80% ethanol and dissolved in DEPC-water after drying, and quantified spectrophotometrically. Suspension cultures of Radon variety were also treated in the same way under anaerobic conditions. Cycloheximide was added at a final concentration of 100 μM, and anaerobic conditions were applied for various time periods after 30 minutes pretreatment. RNA was isolated using the same procedure described above.
Ten μg of total RNA isolated from suspension cells (Radon variety) was loaded in each lane and was resolved in 1.2% formaldehyde-agarose gel according to standard procedures. […]

[4] = tested on: pdc genes; assay: Northern blot of total RNA from suspension cells under anaerobic conditions with or without cycloheximide, common pdc probe; assay type: cell-based, rice; settings: 100 μM cycloheximide, suspension cells (Radon variety)
Procedure: Two-week-old uniform seedlings of rice (IR54 variety) were transferred to two liter flasks and subjected to anaerobic conditions. Seedlings were submerged in distilled water through which nitrogen gas was continuously bubbled. The anaerobic treatment was conducted in the dark at 25° C. Control seedlings were maintained in the dark at 25° C. Tissues were harvested and immersed in liquid nitrogen. Extraction of RNA was carried out according to the procedure of Logmann et al. (Anal Biochem 163: 16-20, 1987) with modifications. The frozen tissue (2 gm) was ground in liquid nitrogen in an autoclaved mortar and pestle, and transferred to autoclaved plastic centrifuge tubes. Extraction buffer (4M guanidine hydrochloride, 20 mM MES, 20 mM EDTA, 4 ml/g tissue) was added to each tube. After vigorous shaking and complete mixing the suspension was extracted once with phenol:chloroform:isoamyl alcohol (25:24:1) and centrifuged for 45 minutes at room temperature at 10,000 rpm in a Beckman centrifuge using JA-20 rotor. […] The RNA sample was subsequently washed with 80% ethanol and dissolved in DEPC-water after drying, and quantified spectrophotometrically. […]

| Compound | GUS activity [1] | protein synthesis [2] | induction of Adh gene ([3]; 100 μM cycloheximide, anaerobic conditions, suspension cells) | Adh transcripts [3] | Adh transcripts ([3]; listed as Cycloheximide) | induction of pdc genes [4] |
| --- | --- | --- | --- | --- | --- | --- |
| 2.38 kb region: about 2.38 kb 5' upstream region of the rice pdc2 gene (hypoxia inducible promoter), fused to the uidA gene | showed GUS activity | – | – | – | – | – |
| C[C@@H]1C[C@@H]([C@H](O)CC2CC(=O)NC(=O)C2)C(=O)[C@@H](C)C1 [cycloheximide] | – | reduce protein synthesis | down-regulated; also recorded: reduced induction | induced Adh transcripts | induced Adh messages | reduce the induction of pdc genes; also recorded: reduced induction |
